Measured values as given in patent US20220010300A1, “METHODS OF TREATING NEURODEGENERATIVE DISORDERS AND IDENTIFYING TARGETS THEREFORE” (The Board of Trustees of the Leland Stanford Junior …, priority 2019, published 2022).

Key:
BV-2 cells [1] = test: In vitro phagocytosis assay (pHrodo red Zymosan uptake); format: cell-based, mouse
Experimental: (§1) To induce lipid droplet formation, subconfluent BV-2 cells were treated for 18 hours with 5 μg/ml LPS (Lipopolysaccharide from E. coli, Sigma) in DMEM+5% FBS. Controls received vehicle solution (PBS) only. To inhibit lipid droplet formation, BV-2 cells were pre-treated with 1 μM Triacsin C (Cayman Chemical) or vehicle (saline) in DMEM+5% FBS. 30 min after adding Triacsin C, LPS or LPS-vehicle solution were added and cells were co-treated with Triacsin C and LPS for 18 hours.
For in vitro phagocytosis assays, BV-2 cells were split into 96 well plates at 1000 cells per well in DMEM+5% FBS and treated with LPS, Triacsin C and vehicle solutions for 18 hours. Following specific treatments, 5 ng pHRodo Red Zymosan™ Bioparticles (Thermo Fisher Scientific P35364) in 100 μl DMEM+5% FBS were added per well. Four phase contrast and red fluorescent images per well were acquired every 2 hours for 16 hours using the Incucyte S3 live cell analysis system (Essen Bioscience). For each time point, phagocytosis was calculated by normalizing red fluorescent area to phase confluence.

[2] = test system: microglia in the hippocampus; test: LPS injections in young mice, BODIPY/Iba1 staining of the hippocampus; format: in vivo, mouse; settings: 3-month-old mice, i.p. 1 mg LPS/kg BW once daily for four days, compared with vehicle treated controls
Experimental: 3-month-old wild type mice were injected with LPS (Lipopolysaccharide from E. coli, Sigma), i.p. 1 mg LPS/kg body weight once daily for four consecutive days. Control mice were injected with body weight corresponding volumes of PBS. 24 hours after the last LPS injection mice were euthanized, brains were extracted and brain tissue was processed for immunohistochemistry staining (see Perfusion and tissue processing and Immunohistochemistry and BODIPY staining).
Mice were anesthetized using Avertin (Tribromoethanol) and transcardially perfused with 0.9% NaCl solution. Brains were extracted, fixed in 4% paraformaldehyde for 48 hours, cryoprotected in 30% sucrose and then sectioned sagitally or coronally ([…]) using a freezing microtome (Leica). […]
For quantification of BODIPY^+ microglia, of CD68^hi microglia, of BODIPY^+ lipid droplet numbers and of lipid droplet size, analyses were performed blinded on coded slides. […]
To analyze the percentage of lipid droplet-containing microglia, numbers of total TMEM119^+ or lba1^+ cells and of TMEM119+BODIPY^+ or lba1+BODIPY^+ cells were counted and the percentage of BODIPY^+ microglia was calculated. To assess the percentage of CD68^hi cells, BODIPY^−lba1^+ and BODIPY^+lba1^+ cells with clearly visible CD68 immunoreactive particles were counted and normalized to total BODIPY^−lba1^+ and BODIPY^+lba1^+ cells.

BV-2 cells [3] = test: BODIPY fluorescence of BV-2 cells by flow cytometry; format: cell-based, mouse
Experimental: as §1

[4] = test system: hippocampal LD-low and LD-high microglia; test: Cytokine assay on acutely isolated primary microglia (multiplex array); format: cell-based, mouse; settings: aged mice, 100 ng/ml LPS for 8 hours; IL-10, CCL3, CCL4, IL-6, CCL5, TNF-α, IL-1β, IL-1α, CXCL1, CXCL10
Experimental: Primary microglia from hippocampi of 3-month (young) and 20-month-old (aged) wild type mice were isolated as described above (see Microglia Isolation, hippocampi from 3 mice were pooled per age group). CD11b^+CD45^lo primary microglia from young mice, and CD11b^+CD45^lo primary microglia sorted for BODIPY^lo and BODIPY^hi cells from aged mice were sorted into 5% FBS-containing microglial culture medium (DMEM/F12, 1% Pen/Strep; 2 mM glutamine; 5 ug/mL N-acetyl cysteine; 5 ug/mL insulin; 100 ug/mL apo-transferrin; 100 ng/mL sodium selenite; 2 ng/mL human TGF-2; 100 ng/mL murine IL-34; 1.5 ug/mL ovine wool cholesterol; 10 ug/mL heparin sulfate)s. Cells were seeded into 96 well plates at 5000 cells per well in 100 μl microglia culture medium with 5% FBS and incubated for 30 min in the incubator (37° C., 5% CO2). Next, cells were treated with 100 ng/ml LPS or PBS for 8 hours, and supernatant was collected and secreted signaling proteins were measured in culture supernatants using the ‘Mouse Cytokine/Chemokine Array 31-Plex’ from Eve Technologies (Canada).

BV-2 cells [5] = test: ROS assay (CellROX fluorescence, microscopy and flow cytometry); format: cell-based, mouse
Experimental: To measure ROS in BV-2 cells, cells were split into 24 well plates at 5×10^4 cells per well in DMEM+5% FBS and treated with LPS, Triacsin C and vehicle solutions for 18 hours. Next, cells were incubated in DMEM+5% FBS with CellROX™ Orange (1:500, Invitrogen) for 30 min at 37° C., washed twice in PBS, and CellROX™ Orange Intensity was examined by fluorescence microscopy (Keyence Corp., Osaka, Japan). Following microscopic analysis, cells were detached using TripLE, transferred to FACS tubes and CellROX™ Orange intensity was analyzed on BD AccuriC6 flow cytometer.

BV-2 cells [6] = test: BODIPY in vitro staining of BV-2 cells (confocal counting of BODIPY+ cells); format: cell-based, mouse
Experimental: as §1
BV-2 cells were seeded at 5×10^4 cells on poly-L-lysine coated glass coverslips in DMEM+5% FBS. Following specific treatments, cells were fixed in 4% PFA for 30 min, washed 3× in PBS and incubated in PBS with BODIPY™ 493/503 (1:1000 from 1 mg/ml stock solution in DMSO; ThermoFisher) and Hoechst 33342 (1:2000, ThermoFisher) for 10 min at RT. Sections were washed twice in PBS and mounted on microscope slides with Vectashield (H-1000, Vector Laboratories). Four randomly selected visual fields per coverslip were photographed (40× magnification) using a confocal scanning laser microscope (LSM 700, Zeiss) with LSM software (ZEN 2011). To analyze the percentage of lipid droplet-containing BV-2 cells, numbers of total Hoechst^+ cells and of Hoechst^+ cells with BODIPY^+ lipid droplets were counted and the percentage of BODIPY^+BV-2 cells was calculated.

BV-2 cells [7] = test: Iodo-BODIPY irradiation assay with Calcein AM live cell staining; format: cell-based, mouse; settings: LPS 5 μg/ml for 18 hours, 3.8 μM iodo-BODIPY for 30 min, green LED irradiation for 3 hours
Experimental: BV-2 cells were treated for 18 hours with 5 μg/ml LPS in DMEM with 5% FBS to induce lipid droplet formation. Controls received vehicle solution (PBS) only. Cells were washed twice in PBS and incubated in 3.8 μM iodo-BODIPY (see FIG. 8, Panel A; iodo-BODIPY was kindly provided by Prof. Carolyn Bertozzi, Chemistry department, Stanford University) in PBS for 30 min in the incubator (5% CO2, 37° C.). Cells were washed twice in PBS and then irradiated under visible light (green LED; 9 W, 150 mA, 2000 lux) for 3 hours at RT. Non-irradiated cells were kept at RT for 3 hours without irradiation.
To assess cell viability after photoirradiation, irradiated and non-irradiated BV-2 cells were stained with 1 μM Calcein AM (Invitrogen) in PBS for 15 min at 37° C. Cells were then examined by fluorescence microscopy (Keyence Corp., Osaka, Japan) and the percentage of green, Calcein^+BV-2 cells (live cells) of total methyl-di-iodo BODIPY^+ cells (red, lipid droplet containing cells) was calculated.

[8] = 1 μM Triacsin C co-treated with LPS (5 μg/ml) for 18 hours

## Lipopolysaccharide from E. coli [LPS]
BV-2 cells [1]; 5 μg/ml LPS for 18 hours
  phagocytosis (pHrodo red Zymosan uptake) in BV-2 cells: significantly increased phagocytosis
[2]
  increase in lipid droplet containing microglia (BODIPY+Iba1+) in the hippocampus: twofold increase
BV-2 cells [3]; 5 μg/ml LPS for 18 hours
  BODIPY+ fluorescence by flow cytometry: significantly increased
[4]
  cytokine release of LD-high microglia compared to LD-low microglia upon LPS treatment: strongly exaggerated release of multiple cytokines
BV-2 cells [5]; 5 μg/ml LPS for 18 hours
  ROS generation (CellROX fluorescence) in BV-2 cells: induced elevated ROS generation
BV-2 cells [6]; 5 μg/ml LPS for 18 hours, compared with control BV-2 cells
  increase of lipid droplet containing BODIPY+ BV-2 cells: 5 fold

## iodo-BODIPY [iBP]
BV-2 cells [7]
  cell killing after photoirradiation of iBP+ BV-2 cells (Calcein live cell imaging): selectively killed lipid-droplet rich cells

## CCC/C=C/C/C=C/C=C/C=N/NN=O [Triacsin C]
BV-2 cells [1]; [8]
  pHrodo red Zymosan phagocytosis in LPS-treated cells: increased Zymosan phagocytosis
BV-2 cells [3]; [8]
  effect on BODIPY+ signal in LPS-stimulated BV-2 cells by flow cytometry: inhibited an increase
BV-2 cells [5]; [8]
  ROS levels (CellROX fluorescence) in LPS-treated cells: significantly reduce ROS levels
BV-2 cells [6]; [8]
  effect on LPS-induced increase in BODIPY+ cells: abolished the LPS-induced increase
